Measurements taken from the METLIN SMRT retention time set (Domingo-Almenara et al. 2019).

Assay: gradient 5% acetonitrile 3 min, to 50% in 2 min, to 85% in 15 min, held 3 min, 100 µL/min
Details: column: Zorbax Extend-C18 2.1 x 50 mm; eluents: water / acetonitrile, 0.1% formic acid
Outline: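 Mixtures of ~100 pure standards were chromatographed on a Zorbax Extend-C18 column (2.1 × 50 mm, 1.8 μm) at 100 μL/min using water and acetonitrile, each with 0.1% formic acid. Detection used a quadrupole time-of-flight mass spectrometer in positive and negative ionization mode, and data collection spanned 3 months. Retention time was obtained from adduct peaks picked computationally and each checked manually.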

Structure (SMILES)	RP-LC retention time [s]
CCOC(=O)c1c(S(=O)(=O)N2CCC(C(=O)Nc3cccnc3)CC2)c(C)n(C)c1C	623
Cc1ccccc1NC(=O)N(C)CC1CCOCC1	726
CCOc1ccccc1-c1noc(Cn2ncn3nc(-c4ccc(F)cc4)cc3c2=O)n1	1080
COc1ccccc1NC(=O)C12CCC(C)(C(=O)C1)C2(C)C (stereo unspecified)	848
Cc1ccc(C(=O)N2CCCCCCNC(=O)[C@@H]3CCCC[C@@H]32)s1	813
Cc1cc(C)cc(NC(=O)c2cn(C)nc2S(=O)(=O)N2CCSCC2)c1	1010
O=C(c1ccccc1OCC1CCCN(C2CCCCC2)C1)N1CCCCC1 (stereo unspecified)	594
O=C(Cn1cccn1)N1CCCC(c2nnc(-c3ccccc3F)s2)C1 (stereo unspecified)	690
COc1ccccc1CNS(=O)(=O)c1ccc2c(c1)C(=O)N(C)c1ncccc1O2	907
O=c1n(Cc2cccc(C(F)(F)F)c2)nc2c(S(=O)(=O)N3CCCC3)cccn12	885
O=C(Nc1cnc(N2CCOCC2)nc1)c1cc(F)ccc1Cl	746
NC1CC1c1ccccc1 (stereo unspecified)	621
COCCNC(=O)N1CCC(c2nnc(C(F)(F)F)o2)CC1	616
O=C(c1ccccn1)N1CCC(n2c(-c3ccsc3)nc3cccnc32)C1 (stereo unspecified)	625
CNC(=O)C1CN(C(=O)Cc2c[nH]c3ccccc23)CC12CCCC2 (stereo unspecified)	596
O=C(Nc1cccc(Nc2ncc(Br)c(NCCc3cnc[nH]3)n2)c1)N1CCCC1	592
O=C(NC1CCCN(c2cc(N3CCCC3)ncn2)C1)c1ccoc1 (stereo unspecified)	671

Structure (SMILES)	RP-LC retention time [s]
CS(=O)(=O)N1CCC(C(=O)Nc2nnc(-c3ccc(F)cc3)o2)CC1	636
CC(C)n1c(=O)c(NCc2ccc(N3CCOCC3)cc2)nc2ccncc21	606
Cc1cc(F)ccc1NS(=O)(=O)c1cc2n(c1)CCCN(C)C2=O	687
CCCNC(=O)C1CCN(S(=O)(=O)c2cc(C(=O)N3CCC(C)CC3)n(C)c2)CC1	738
O=C(O)c1cnc(-c2ccccc2)nc1-c1ccncc1	653
CC1CCc2nc3ncn(CC(=O)NCCC4=CCCCC4)c(=O)c3cc2C1 (stereo unspecified)	847
Cc1ccccc1-c1nc(C)c(C(=O)NC2CC2)s1	863
COCCN1CC(CO)C2(CCN(Cc3ccc(Cl)c(F)c3)CC2)C1 (stereo unspecified)	555
CCC1CCCCN1C(=O)c1cnc2nc(C)ccc2c1Nc1ccc(OC)cc1OC (stereo unspecified)	667
Cc1ccc(-c2cc3n(n2)CCCN(C(=O)c2ccc(C)s2)C3)cc1	948
Cc1cc(N2C=C(C#N)S(=O)(=O)c3ccc(F)cc32)ccc1Br	979
COc1ccc(-c2csc3c(=O)n(CC(=O)NC4CCCC4)cnc23)cc1	832
COc1ccc(C)cc1NC(=O)C1CCc2nc(N3CCOCC3)ncc2C1 (stereo unspecified)	832
Cc1noc(C)c1CN1CCC(NC(=O)c2cccc(C#N)c2)C1 (stereo unspecified)	578
COc1cc(-c2oc3cc(O)cc(O)c3c(=O)c2OC[C@@H]2OC(O[C@@H]3O[C@@H](C)[C@H](O)[C@@H](O)[C@H]3O)[C@@H](O)[C@H](O)[C@@H]2O)ccc1O (stereo partly specified)	638
CCOc1ccc(S(=O)(=O)N2CCC(C(=O)NCCC3=CCCCC3)CC2)cc1	953

Continued, values first:

RP-LC retention time [s]	Structure (SMILES)
735	COC(=O)c1ncn2c1C(=O)N(Cc1ccccc1C)C(C)(C(=O)NCc1ccccc1)C2 (stereo unspecified)
1110	COc1ccc(Cl)cc1NC(=O)C1CCN(S(C)(=O)=O)c2cc(C)ccc2O1 (stereo unspecified)
1030	CCOc1ccc(N(C)S(=O)(=O)c2ccsc2C(=O)NC2CCCC2)cc1
870	CCCN1C(=O)COc2ccc(-c3noc(CNC(=O)c4ccccc4)n3)cc21
779	COc1ccc(-c2cc3n(n2)CCCN(S(=O)(=O)c2ccc(NC(C)=O)cc2)C3)cc1
594	COCC(C)(O)CNC(=O)Nc1cccs1 (stereo unspecified)
665	O=C(Cn1nc2c3ccccc3ncn2c1=O)Nc1ccc2c(c1)OCO2
777	O=S(=O)(NCc1ccc(F)cc1)c1ccc(N2CCCCS2(=O)=O)cc1
758	O=C(NCCC1CCN(C(=O)Nc2cc(F)ccc2F)CC1)c1ccoc1
692	COC(=O)c1ncn2c1C(=O)N(c1ccc(C)cc1)C(C)(C(=O)NCc1ccccc1)C2 (stereo unspecified)
692	O=C(CCc1c(-c2ccccc2)nc2ccccn12)Nc1cccc(F)c1
1110	CCn1c(C(=O)NC(C)CCc2ccccc2)cc2sccc21 (stereo unspecified)
623	O=C(NCc1ccccc1F)c1ccc2ncnc(N3CCCC3)c2c1
790	Cc1ccc(Nc2c(-c3ccc([N+](=O)[O-])cc3)nc3cc(C)ccn23)cc1
834	CC(C)N1C(=O)c2cccnc2Sc2cc(NC(=O)Cc3cccs3)ccc21
748	COc1ccc(-c2nnc(N3CCC(C(=O)Nc4ccc(OC)c(OC)c4)CC3)o2)cc1
738	Cc1ccccc1OCC(=O)Nc1nnc(C2CC(=O)N(c3ccc(F)cc3)C2)o1 (stereo unspecified)

RP-LC retention time [s]	Structure (SMILES)
694	Cc1ccn2cc(-c3ccc(NC(=O)CCCc4ccccc4)cc3)nc2n1
678	O=C(NCCCN1CCCC1=O)C1c2ccccc2CC(=O)N1Cc1ccccc1 (stereo unspecified)
588	CC(=O)Nc1ccc(NC(=O)C(=O)NCCN2CCN(c3ccc(Cl)cc3)CC2)cc1
1120	CCc1ccc(N2C(=O)C3N=NN(Cc4nc(-c5cccc(Br)c5)no4)C3C2=O)cc1 (stereo unspecified)
653	Cn1cc(-c2ccncc2)cc1C(=O)NCc1ccc(F)cc1Cl
776	O=C(Cn1cnc2c(nnn2-c2ccc(Br)cc2)c1=O)NCc1ccco1
704	Cc1ccc2c(=O)c(C(=O)N3CCCC3)cn(CC(=O)Nc3ccccc3Cl)c2n1
595	CCN(CC)CCCNC(=O)CN1C(=O)C2CCCCN2c2ccc(C(=O)N(C)C)cc21 (stereo unspecified)
790	COCCNC(=O)Cc1ccc(NC(=O)c2ccc(C(C)(C)C)cc2)cc1
1110	Cc1ccc(C)c(-c2csc3c(=O)n(CC(=O)OC(C)(C)C)cnc23)c1
626	O=C(NCc1ccccc1)Nc1c(-c2ccccc2)nc2ccccn12
739	Cc1cc(C)cc(NC(=O)Cc2c(C(=O)O)c(C)cn2C)c1
1030	Cc1ccc(Oc2nccn3c(=O)n(CC(=O)Nc4ccc(C(C)C)cc4)nc23)cc1
914	CC(C)S(=O)(=O)c1cccc(C(=O)Nc2nc(-c3cc([N+](=O)[O-])cs3)cs2)c1
669	CNC(=O)c1cc(C(=O)c2ccc3nc(Nc4ccc(Cl)cc4)[nH]c3c2)ccn1
1060	COc1ccc(C2(c3nc(C4CC(=O)N(c5ccc(C)cc5)C4)no3)CC2)cc1 (stereo unspecified)
